Key:
[1] = tested on: subcutaneous abdominal tissue; assay: Clinical trial: histological changes, efficacy and safety by concentration; type: in vivo, human
Method: These findings are consistent with the increased intensity of adverse effects at the higher concentrations and larger volumes administered (0.4 mL/injection) in clinical trials. […] Concentrations at or below 0.25% were not tested, as they are at or below the concentration necessary to form micelles. The formation of micelles is essential for lipolytic activity.
(§1) A total of 274 subjects participated in 6 Phase ½ clinical studies that were conducted with SDI. Of these, 3 studies (n=179) evaluated SDI for the treatment of submental fat (SMF). Two studies evaluated SDI for the treatment of superficial lipoma. One study (SDI-08-10) evaluated the histological effects of SDI in subcutaneous abdominal tissue in subjects scheduled to undergo abdominoplasty.

[2] = tested on: caudal lateral fat pads; assay: Fat pad necrosis in Zucker rats after a single injection; type: in vivo; conditions: for effectiveness: Zucker rats and clinical studies
Method: In the rats study, 8 rats received a single injection into the caudal lateral fat pads of 2.5 mL deoxycholic acid at 1%, 0.5%, 0.25%, or 0.1% concentrations, or 2.5 mL vehicle (0.9% benzyl alcohol in water).

[3] = tested on: submental fat (SMF) deposits; assay: Example 2 placebo-controlled clinical study, SMF rating scale; type: in vivo, human; conditions: for change from baseline at week 16 compared to placebo in SMF rating scale score: significance (ANCOVA): every 4 weeks, up to 4 treatments
Method: A clinical study was conducted to evaluate the effectiveness of various doses of sodium deoxycholate in removing undesired submental fat (SMF) deposits. A multicenter, randomized, double-blind, placebo-controlled, parallel-group comparison of 3 concentrations of sodium deoxycholate (0.5, 1.0, and 2.0 percent w/v) in sterile water with 0.9% benzyl alcohol and placebo was conducted to determine the efficacy of reduction in SMF deposits. Placebo injection consisted of sterile water with 0.9% benzyl alcohol.
All subjects were to have up to 4 treatment sessions at intervals of no less than 4 weeks (±3 days) between treatments.
Eligible subjects were concurrently randomized into one of the following groups: • Placebo injected every 4 weeks for up to 4 treatments • 0.5% w/v sodium deoxycholate injected every 4 weeks for up to 4 treatments • 1.0% w/v sodium deoxycholate injected every 4 weeks for up to 4 treatments • 2.0% w/v sodium deoxycholate injected every 4 weeks for up to 4 treatments
85 subjects were randomized: 21 subjects to the 0.5% w/v sodium deoxycholate group, 20 subjects to the 1.0% w/v sodium deoxycholate group; 22 subjects to the 2.0% w/v sodium deoxycholate (DCA) group; and 22 subjects to the placebo group. 73 subjects completed the study.
Subject selection included males or non-pregnant, non-lactating females aged 25 to 65 years, inclusive, on the date of randomization, with SMF that was considered undesirable by the subject and graded by the investigator as 2 or 3 using the SMF rating scale, and a history of maintenance of a stable body weight, in the judgment of the investigator, for at least 6 months before randomization.

[4] = Pharmacokinetics of SDI in clinical studies (plasma deoxycholate); type: in vivo; conditions: human
Method: (§2) The most commonly observed adverse events associated with the treatment area include pain, erythema, induration, swelling, bruising, and numbness. Less frequently, pruritus and paresthesia have been reported. […] The pharmacokinetics of SDI is linear, illustrating the predictable overall exposure. Plasma concentrations were transient with peak concentrations observed at approximately 15 to 30 minutes, returning to endogenous deoxycholate levels within 24 hours after dosing.

[5] = In vitro micelle formation; type: physicochemical
Excerpt: When secreted into the small intestine, bile acids form micelles with dietary fats to aid in lipolysis and lipid absorption.

[6] = Phase 1/2 clinical studies with SDI: safety; type: in vivo, human
Method: as §1, §2

[7] = tested on: submental fat; assay: Earlier clinical studies of SDI for submental fat (SMFRS, SSRS); type: in vivo, human
Method: as §1
The SMF scale used to assess efficacy in clinical studies with SDI has been validated and shown to be reliable. […] The expected improvement from treatment with SDI is consistent with what patients who desire aesthetic changes would find satisfactory.

[8] = tested on: submental fat (SMF); assay: Example 3 phase II placebo-controlled study (CR-SMFRS, PR-SMFRS, PR-SMFIS, MRI, other scales); type: in vivo, human; conditions: for number of patients having at least 1-point improvement (CR-SMFRS) vs placebo group: week 16, 24 and 32
Method: A clinical study was conducted to evaluate the effectiveness of various doses of sodium deoxycholate in removing undesired submental fat (SMF) deposits. This clinical study was multicenter, randomized, double-blind, placebo-controlled study of sodium deoxycholate injection (“SDI” or alternatively “ATX-101”) versus placebo for the reduction of localized subcutaneous fat in the submental area (SMF) using magnetic resonance imaging (MRI) and a battery of clinician- and subject-reported measurements.
Study Design: FIG. 2 depicts the study Design and Treatment Schema associated with this procedure. This was a multicenter, randomized, double-blind, placebo-controlled study in which approximately 120 subjects received either up to 50 mg SDI, up to 100 mg SDI, or placebo in a 1:1:1 ratio (5 mg/mL:10 mg/mL:placebo) as indicated below, to evaluate the safety and efficacy of fixed concentrations of SDI given in up to 50 0.2-mL injections in up to 6 treatment sessions. No subject received more than 10 mL in any treatment session, nor did any subject undergo more than 6 treatment sessions. The initial 30 subjects were enrolled in a 2:2:1 ratio (i.e., 12, 12 and 6 subjects per group, for the two SDI groups and placebo, respectively) and the remaining subjects were randomized to balance the enrollment (approximately 28, 28, and […] per group for the two SDI groups and placebo, respectively).
To measure changes in SMF volume and thickness, MRI acquisitions were repeated prior to each treatment session and post-treatment (4 and 12 weeks after the last treatment cycle). Before subjects completed each MRI visit, the MRI images were evaluated for acceptability.
Subjects who successfully completed screening and baseline evaluations received up to 50 injections (0.2 mL each for a maximum volume of 10 mL) per treatment session, depending upon size and configuration of the SMF. Treatment was given at 4-week (±5 days) intervals. Study material injection sites were positioned using a 1.0 cm grid, which is designed to achieve an appropriate distribution of injections across the submental area.
Study Material, Dose, and Route of Administration: SDI (sodium deoxycholate injection) was provided in a concentration of 5 mg/mL (0.5%) and 10 mg/mL (1.0%) in 10 mM sodium phosphate, 0.9% (weight per volume [w/v]) sodium chloride, and 0.9% (w/v) benzyl alcohol in water for injection (WFI). Each vial (for single use only) contained at least 2.0 mL of accessible material, accessed by means of sterile syringe and needle through a rubber stopper closure.
Evaluation of Efficacy: The effects of 5 mg/mL SDI and 10 mg/mL SDI transcutaneous injections in the submental area were evaluated relative to placebo by measuring the following: (1) the reduction of fat using Clinician-Reported Submental Fat Rating Scale (CR-SMFRS), Patient-Reported Submental Fat Rating Scale (PR-SMFRS), and Patient-Reported Submental Fat Impact Scale (PR-SMFIS); (2) the volume of SMF using MRI; and (3) the thickness of SMF using MM. The efficacy evaluation criteria included: Clinician-Reported Submental Fat Rating Scale (CR-SMFRS), Patient-Reported Submental Fat Rating Scale (PR-SMFRS), Patient-Reported Submental Fat Impact Scale (PR-SMFIS) scores, and Magnetic resonance imaging (MM).
Other Evaluations: The effects of 5 mg/mL SDI and 10 mg/mL SDI transcutaneous injections in the submental area, relative to placebo, for changes in skin laxity (SLRS), Subject Self Rating Scale (SSRS), and subject-reported outcome measures (Self-Ratings of Attractiveness, Derriford Appearance Scale [DAS], Body Image Quality of Life Inventory [BIQLI]), other Subject-Reported Questions, and Post-treatment Questions) were evaluated. Measurements of the thickness of fat in the submental area were made using calipers. Photographs were taken to document treatment effects. […]

C[C@H](CCC(=O)O)[C@H]1CC[C@H]2[C@@H]3CC[C@@H]4C[C@H](O)CC[C@]4(C)[C@H]3C[C@H](O)[C@]12C [deoxycholic acid]
histological changes ([1]; 2.0%): marked necrosis, resulting in lipid lake formation and vessel damage | histological changes ([1]; 4.0%): marked necrosis, resulting in lipid lake formation and vessel damage | fat pad necrosis relative to 0.5% ([2]; 1.0% vs 0.5%, single 2.5 mL injection): approximately 2.5 times

C[C@H](CCC(=O)[O-])[C@H]1CC[C@H]2[C@@H]3CC[C@@H]4C[C@H](O)CC[C@]4(C)[C@H]3C[C@H](O)[C@]12C.[Na+] [sodium deoxycholate]
time points with statistically significant change from baseline in SMF rating scale score compared to placebo ([3]; 0.5% w/v): weeks 8, 12, 16 and 24 | change from baseline at week 16 compared to placebo in SMF rating scale score: significance (ANCOVA) ([3]; 0.5% w/v): statistically significant | time points with statistically significant improvement in SMF rating scale score compared to placebo ([3]; 1.0% w/v): weeks 12, 16 and 24 | change from baseline at week 16 compared to placebo in SMF rating scale score: significance (ANCOVA) ([3]; 1% w/v): statistically significant | relative effectiveness by visual assessment methods ([3]; 2.0% vs 1.0% or 0.5%): less effective than ATX-101 1.0% or 0.5% | time points with statistically significant improvement in SMF rating scale score compared to placebo ([3]; 2% w/v): only at week 24 | change from baseline at week 16 compared to placebo in SMF rating scale score: significance (ANCOVA) ([3]; 2% w/v): not | pharmacokinetics (linearity) [4]: linear | time of peak plasma concentrations [4]: 15 to 30 min | time to return to endogenous deoxycholate levels after dosing [4]: ≤ 24 h | minimal concentration at which micelle formation was observed [5]: 0.25 % w/v | safety profile across studies ([6]; 0.5% vs 2.0% and 4.0%): better safety profile than the higher concentrations | safety profile across studies ([6]; 1.0% vs 2.0% and 4.0%): better safety profile than the higher concentrations | safety and tolerability ([6]; all concentrations in clinical studies): safe and well tolerated | adverse events ([6]; clinical studies, not systemic): local, transient injection site reactions of mild to moderate intensity | effectiveness ([2]; 0.5% w/v): effective | effectiveness ([2]; 1.0% w/v): effective | effect compared with vehicle ([2]; doses at and below 0.25%): no different than vehicle | SSRS scores ([7]; 0.5% [0.2 mL/1.0 cm]): significantly better than placebo | change in SMFRS score at Week 16 ([7]; 0.5% [0.2 mL/1.0 cm]): significantly better than placebo | SSRS scores ([7]; 1.0% [0.2 mL/1.0 cm]): significantly better than placebo | change in SMFRS score at Week 16 ([7]; 1.0% [0.2 mL/1.0 cm]): significantly better than placebo | CR-SMFRS change from baseline (FIG. 4) ([8]; 0.5%): marked reduction of submental fat as compared with placebo | SMF thickness and volume by MRI ([8]; 0.5%): statistically significant reduction | SSRS, patient impact scores, patient impact questionnaire, improvement in appearance of the chin and satisfaction ([8]; 0.5%): statistically significant changes | number of patients having at least 1-point improvement (CR-SMFRS) vs placebo group ([8]; 0.5%): greater | CR-SMFRS change from baseline (FIG. 4) ([8]; 1.0%): marked reduction of submental fat as compared with placebo | SMF thickness and volume by MRI ([8]; 1.0%): statistically significant reduction | SSRS, patient impact scores, patient impact questionnaire, improvement in appearance of the chin and satisfaction ([8]; 1.0%): statistically significant changes | statistical significance of CR-SMFRS reduction vs placebo ([8]; 1.0%): statistically significant at most time points | dose response by CR-SMFRS ([8]; 1.0% and 0.5%): good dose response | dose response by PR-SMFRS ([8]; 1.0% and 0.5%): good dose response | SMF thickness and volume by MRI, compared with 0.5% ([8]; 1.0% vs 0.5%): better dose response and greater reduction | relative effectiveness by CR-SMFRS ([8]; 1.0% vs 0.5%): more effective than 0.5% | relative effectiveness by PR-SMFRS ([8]; 1.0% vs 0.5%): more effective than 0.5% | number of patients having at least 1-point improvement (CR-SMFRS) vs placebo group ([8]; 1.0%): greater | 1-grade reduction, CR-SMFRS ([8]; 1.0%, week 16 and week 32): Statistically significance was obtained | 1-grade reduction, PR-SMFRS ([8]; 1.0%, week 16 and week 32): Statistically significance was obtained | 2-grade reduction, PR-SMFRS ([8]; 1.0%, week 32): Statistically significance was obtained | CR-SMFRS with BMI as a standard (FIG. 18) ([8]; ATX-101 treatments): significant submental fat reduction | CR-SMFRS/body weight ratio ([8]; FIGS. 20 and 21): decreased significantly
